The record followed here is ChEMBL document CHEMBL5465560, “Selectivity Literature for EUbOPEN Chemogenomic Library” (2024).

For test [1], the system named is Proto-oncogene tyrosine-protein kinase receptor Ret (Homo sapiens), P07949 [V804M]. Nature of the test: (§1) Selectivity interaction (LanthaScreen Eu Kinase Binding Assay) EUB0001632a RET. As to conditions: at 10 µM. In general terms: Time-resolved FRET reads energy transfer from a long-lived donor to a nearby acceptor.
For test [2], the system named is Proto-oncogene tyrosine-protein kinase receptor Ret (Homo sapiens), P07949 [M918T]. The test is described as §1. As to conditions: at 10 µM.
The test system of test [3] is Proto-oncogene tyrosine-protein kinase receptor Ret (Homo sapiens), P07949 [G691S]. The description is as §1. As to conditions: at 10 µM.
The test system of test [4] is eIF-2-alpha kinase GCN2 (Homo sapiens), Q9P2K8 [S808G]. The conditions noted are these: at 10 µM.
A further test concerns the target Activated CDC42 kinase 1 (Homo sapiens, UniProt Q07912). As to conditions: at 10 µM.
In test [5] the target is LIM domain kinase 2 (Homo sapiens) (UniProt P53671). Nature of the test: Selectivity interaction (KinomeScan (DiscoverX)) EUB0000695a LIMK2. As to conditions: at 100 nM.
Test [6] has as its target MAP/microtubule affinity-regulating kinase 3 (Homo sapiens) (UniProt P27448). Briefly: Selectivity interaction (KinomeScan (DiscoverX)) EUB0000666a MARK3. The conditions noted are these: at 10 µM.
Test [7] deals with T1, Membrane-associated tyrosine- and threonine-specific cdc2-inhibitory kinase (Homo sapiens) (UniProt Q99640).
T1 sequence (whole entry): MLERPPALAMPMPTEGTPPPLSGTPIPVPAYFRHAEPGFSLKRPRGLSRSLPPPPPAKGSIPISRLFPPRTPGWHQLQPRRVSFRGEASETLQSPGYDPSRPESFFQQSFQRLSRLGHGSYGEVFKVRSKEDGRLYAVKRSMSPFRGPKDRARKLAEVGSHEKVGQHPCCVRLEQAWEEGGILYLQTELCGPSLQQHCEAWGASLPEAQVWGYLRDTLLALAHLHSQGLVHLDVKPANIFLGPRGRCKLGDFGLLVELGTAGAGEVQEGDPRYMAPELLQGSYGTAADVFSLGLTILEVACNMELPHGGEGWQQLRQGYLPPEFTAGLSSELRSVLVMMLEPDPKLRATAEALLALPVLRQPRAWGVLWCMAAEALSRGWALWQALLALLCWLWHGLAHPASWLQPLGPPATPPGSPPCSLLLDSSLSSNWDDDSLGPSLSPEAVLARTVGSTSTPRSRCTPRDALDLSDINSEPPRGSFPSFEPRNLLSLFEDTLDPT
As to conditions: at 10 µM.

Test [8] addresses STE20-like serine/threonine-protein kinase (Homo sapiens, UniProt Q9H2G2). Briefly: Selectivity interaction (ActivX KiNativ screen (kinase selectivity in THP-1 cell lysates)) EUB0000639a SLK. The test is classed as subcellular. As to conditions: lysate, at 1 µM.
Test [9] addresses T2, G protein-coupled receptor kinase 3 (Homo sapiens) (UniProt P35626).
T2 sequence (whole entry): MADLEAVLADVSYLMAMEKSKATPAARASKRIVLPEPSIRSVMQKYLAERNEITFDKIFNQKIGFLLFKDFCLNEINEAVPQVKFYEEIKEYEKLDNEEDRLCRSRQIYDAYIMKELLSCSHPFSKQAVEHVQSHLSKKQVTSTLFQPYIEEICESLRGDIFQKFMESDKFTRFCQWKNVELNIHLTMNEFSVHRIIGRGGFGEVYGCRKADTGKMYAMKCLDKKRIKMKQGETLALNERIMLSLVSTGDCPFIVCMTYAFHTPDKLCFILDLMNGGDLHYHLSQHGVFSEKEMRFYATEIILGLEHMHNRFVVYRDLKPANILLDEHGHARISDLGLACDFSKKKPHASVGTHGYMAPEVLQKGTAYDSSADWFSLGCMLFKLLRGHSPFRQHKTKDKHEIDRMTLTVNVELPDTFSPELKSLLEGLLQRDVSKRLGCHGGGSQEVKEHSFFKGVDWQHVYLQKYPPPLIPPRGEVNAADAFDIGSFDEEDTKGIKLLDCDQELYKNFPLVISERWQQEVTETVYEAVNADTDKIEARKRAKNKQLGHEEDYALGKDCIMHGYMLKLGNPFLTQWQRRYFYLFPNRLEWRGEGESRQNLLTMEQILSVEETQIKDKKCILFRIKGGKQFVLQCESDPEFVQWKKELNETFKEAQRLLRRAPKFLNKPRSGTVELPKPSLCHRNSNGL
Nature of the test: Selectivity interaction (Kinase panel (Invitrogen)) EUB0000639a ADRBK2. The conditions noted are these: at 200 nM.

The target of test [10] is Mitogen-activated protein kinase kinase kinase 20 (Homo sapiens) (UniProt Q9NYL2). Briefly: Selectivity interaction (ProQinase) EUB0000171b MAP3K20.
In test [11] the test system is eIF-2-alpha kinase GCN2 (Homo sapiens), Q9P2K8 [S808G]. Briefly: Selectivity interaction (KinomeScan (DiscoverX)) EUB0001049a EIF2AK4. The conditions noted are these: at 1 µM.
Test [12] has as its system Phosphatidylinositol 4,5-bisphosphate 3-kinase catalytic subunit alpha isoform (Homo sapiens), P42336 [H1047L]. Briefly: (§2) Selectivity interaction (KinomeScan (DiscoverX)) EUB0000618a PIK3CA. The conditions noted are these: at 10 µM.
Test [13] relates to Phosphatidylinositol 4,5-bisphosphate 3-kinase catalytic subunit alpha isoform (Homo sapiens), P42336 [C420R]. The description is as §2. As to conditions: at 10 µM.
The test system of test [14] is Phosphatidylinositol 4,5-bisphosphate 3-kinase catalytic subunit alpha isoform (Homo sapiens), P42336 [E542K]. Described as §2. The conditions noted are these: at 10 µM.
Test [15] deals with Phosphatidylinositol 4,5-bisphosphate 3-kinase catalytic subunit alpha isoform (Homo sapiens), P42336 [Q546K]. Described as §2. The conditions noted are these: at 10 µM.
Test [16] deals with Phosphatidylinositol 4,5-bisphosphate 3-kinase catalytic subunit alpha isoform (Homo sapiens), P42336 [E545A]. The description is as §2. As to conditions: at 10 µM.
For test [17], the target named is Phosphatidylinositol 4,5-bisphosphate 3-kinase catalytic subunit alpha isoform (Homo sapiens) (UniProt P42336). The description is as §2. The conditions noted are these: at 10 µM.
In test [18] the test system is Phosphatidylinositol 4,5-bisphosphate 3-kinase catalytic subunit alpha isoform (Homo sapiens), P42336 [H1047Y]. The description is as §2. As to conditions: at 10 µM.
Test [19] deals with Phosphatidylinositol 4,5-bisphosphate 3-kinase catalytic subunit alpha isoform (Homo sapiens), P42336 [E545K]. The test is described as §2. The conditions noted are these: at 10 µM.
Test [20] concerns Phosphatidylinositol 4,5-bisphosphate 3-kinase catalytic subunit alpha isoform (Homo sapiens), P42336 [M1043I]. The description is as §2. As to conditions: at 10 µM.
Test [21] deals with Glycogen synthase kinase-3 beta (Homo sapiens, UniProt P49841). Briefly: Selectivity interaction (Kinase panel (DSF assay)) EUB0001558a GSK3B.
Glycogen synthase kinase-3 beta, sequence (P49841 whole entry, looked up): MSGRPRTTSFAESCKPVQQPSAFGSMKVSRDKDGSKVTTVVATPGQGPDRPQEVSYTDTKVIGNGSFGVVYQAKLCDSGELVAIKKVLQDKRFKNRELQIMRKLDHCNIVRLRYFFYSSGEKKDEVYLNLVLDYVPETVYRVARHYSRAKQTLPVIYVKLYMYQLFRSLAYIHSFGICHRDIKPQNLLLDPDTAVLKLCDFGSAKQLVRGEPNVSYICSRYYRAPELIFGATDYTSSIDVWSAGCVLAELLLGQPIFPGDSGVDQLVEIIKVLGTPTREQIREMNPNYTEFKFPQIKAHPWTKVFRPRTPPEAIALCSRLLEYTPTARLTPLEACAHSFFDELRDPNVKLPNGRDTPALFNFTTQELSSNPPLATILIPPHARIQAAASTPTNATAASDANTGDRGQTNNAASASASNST

Mitogen-activated protein kinase kinase kinase 20 (Homo sapiens), sequence (Q9NYL2 2-800 limits assumed): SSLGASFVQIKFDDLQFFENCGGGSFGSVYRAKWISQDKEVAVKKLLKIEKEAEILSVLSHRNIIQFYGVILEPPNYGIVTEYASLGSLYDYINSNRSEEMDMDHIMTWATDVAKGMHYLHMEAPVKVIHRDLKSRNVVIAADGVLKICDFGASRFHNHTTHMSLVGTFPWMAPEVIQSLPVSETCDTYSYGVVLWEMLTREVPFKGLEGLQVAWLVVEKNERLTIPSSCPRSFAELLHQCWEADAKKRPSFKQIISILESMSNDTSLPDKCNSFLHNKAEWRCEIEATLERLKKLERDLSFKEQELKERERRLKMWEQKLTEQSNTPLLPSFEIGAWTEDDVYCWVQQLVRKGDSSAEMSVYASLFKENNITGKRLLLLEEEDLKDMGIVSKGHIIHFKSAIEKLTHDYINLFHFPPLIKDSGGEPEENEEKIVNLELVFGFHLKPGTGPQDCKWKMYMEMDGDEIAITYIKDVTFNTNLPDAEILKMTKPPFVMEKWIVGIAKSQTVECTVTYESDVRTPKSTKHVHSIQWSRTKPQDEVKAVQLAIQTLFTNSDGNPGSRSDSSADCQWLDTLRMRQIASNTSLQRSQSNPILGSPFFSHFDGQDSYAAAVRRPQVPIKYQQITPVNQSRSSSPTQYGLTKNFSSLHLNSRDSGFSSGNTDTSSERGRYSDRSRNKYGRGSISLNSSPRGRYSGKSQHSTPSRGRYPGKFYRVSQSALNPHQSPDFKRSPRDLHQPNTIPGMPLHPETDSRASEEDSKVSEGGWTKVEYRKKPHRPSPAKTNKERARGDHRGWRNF
eIF-2-alpha kinase GCN2 (Homo sapiens), Q9P2K8 [S808G], sequence (Q9P2K8 whole entry S808G, canonical isoform): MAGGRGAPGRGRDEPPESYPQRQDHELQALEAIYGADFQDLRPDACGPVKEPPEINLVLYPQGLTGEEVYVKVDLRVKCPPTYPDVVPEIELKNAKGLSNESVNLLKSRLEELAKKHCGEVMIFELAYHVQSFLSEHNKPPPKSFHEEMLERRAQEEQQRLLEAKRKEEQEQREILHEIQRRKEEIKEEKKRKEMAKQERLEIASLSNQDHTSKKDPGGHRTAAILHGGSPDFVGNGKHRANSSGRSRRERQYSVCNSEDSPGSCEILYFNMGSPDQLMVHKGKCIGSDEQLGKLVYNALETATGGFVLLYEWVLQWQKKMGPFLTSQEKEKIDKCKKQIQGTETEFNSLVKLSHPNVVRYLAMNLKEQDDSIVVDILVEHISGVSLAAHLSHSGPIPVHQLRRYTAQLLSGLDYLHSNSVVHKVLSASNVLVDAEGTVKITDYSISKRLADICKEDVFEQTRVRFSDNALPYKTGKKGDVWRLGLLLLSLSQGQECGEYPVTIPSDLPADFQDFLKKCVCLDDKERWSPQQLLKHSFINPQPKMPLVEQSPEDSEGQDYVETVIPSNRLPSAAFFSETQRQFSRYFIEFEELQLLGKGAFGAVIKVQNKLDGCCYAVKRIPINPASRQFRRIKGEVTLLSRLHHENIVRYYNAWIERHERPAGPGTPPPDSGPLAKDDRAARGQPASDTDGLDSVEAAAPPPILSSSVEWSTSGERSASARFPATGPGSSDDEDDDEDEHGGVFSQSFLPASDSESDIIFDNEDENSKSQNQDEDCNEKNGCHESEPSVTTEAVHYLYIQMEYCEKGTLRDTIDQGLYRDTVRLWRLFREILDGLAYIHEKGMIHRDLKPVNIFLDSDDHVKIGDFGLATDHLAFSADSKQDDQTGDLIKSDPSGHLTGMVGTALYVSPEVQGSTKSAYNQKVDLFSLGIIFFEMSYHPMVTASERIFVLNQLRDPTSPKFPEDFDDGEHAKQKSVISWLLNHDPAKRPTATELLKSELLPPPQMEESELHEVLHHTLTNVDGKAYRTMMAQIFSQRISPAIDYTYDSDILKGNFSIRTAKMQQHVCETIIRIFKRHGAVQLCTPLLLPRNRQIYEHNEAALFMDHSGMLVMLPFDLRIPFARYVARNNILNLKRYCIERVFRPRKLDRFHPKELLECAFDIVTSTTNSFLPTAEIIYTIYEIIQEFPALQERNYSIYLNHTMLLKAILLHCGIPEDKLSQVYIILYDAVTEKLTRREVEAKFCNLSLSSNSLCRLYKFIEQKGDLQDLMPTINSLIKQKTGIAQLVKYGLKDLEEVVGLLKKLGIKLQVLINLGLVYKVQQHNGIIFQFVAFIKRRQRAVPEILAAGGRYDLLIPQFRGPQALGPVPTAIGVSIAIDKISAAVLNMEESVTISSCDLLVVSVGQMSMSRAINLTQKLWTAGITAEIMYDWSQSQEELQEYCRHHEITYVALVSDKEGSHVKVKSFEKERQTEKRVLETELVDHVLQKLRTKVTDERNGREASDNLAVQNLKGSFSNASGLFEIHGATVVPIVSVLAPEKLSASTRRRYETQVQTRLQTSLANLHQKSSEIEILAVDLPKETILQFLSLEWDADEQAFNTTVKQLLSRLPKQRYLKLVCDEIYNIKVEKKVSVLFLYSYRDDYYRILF
Phosphatidylinositol 4,5-bisphosphate 3-kinase catalytic subunit alpha isoform (Homo sapiens), P42336 [Q546K], sequence (P42336 whole entry Q546K, canonical isoform): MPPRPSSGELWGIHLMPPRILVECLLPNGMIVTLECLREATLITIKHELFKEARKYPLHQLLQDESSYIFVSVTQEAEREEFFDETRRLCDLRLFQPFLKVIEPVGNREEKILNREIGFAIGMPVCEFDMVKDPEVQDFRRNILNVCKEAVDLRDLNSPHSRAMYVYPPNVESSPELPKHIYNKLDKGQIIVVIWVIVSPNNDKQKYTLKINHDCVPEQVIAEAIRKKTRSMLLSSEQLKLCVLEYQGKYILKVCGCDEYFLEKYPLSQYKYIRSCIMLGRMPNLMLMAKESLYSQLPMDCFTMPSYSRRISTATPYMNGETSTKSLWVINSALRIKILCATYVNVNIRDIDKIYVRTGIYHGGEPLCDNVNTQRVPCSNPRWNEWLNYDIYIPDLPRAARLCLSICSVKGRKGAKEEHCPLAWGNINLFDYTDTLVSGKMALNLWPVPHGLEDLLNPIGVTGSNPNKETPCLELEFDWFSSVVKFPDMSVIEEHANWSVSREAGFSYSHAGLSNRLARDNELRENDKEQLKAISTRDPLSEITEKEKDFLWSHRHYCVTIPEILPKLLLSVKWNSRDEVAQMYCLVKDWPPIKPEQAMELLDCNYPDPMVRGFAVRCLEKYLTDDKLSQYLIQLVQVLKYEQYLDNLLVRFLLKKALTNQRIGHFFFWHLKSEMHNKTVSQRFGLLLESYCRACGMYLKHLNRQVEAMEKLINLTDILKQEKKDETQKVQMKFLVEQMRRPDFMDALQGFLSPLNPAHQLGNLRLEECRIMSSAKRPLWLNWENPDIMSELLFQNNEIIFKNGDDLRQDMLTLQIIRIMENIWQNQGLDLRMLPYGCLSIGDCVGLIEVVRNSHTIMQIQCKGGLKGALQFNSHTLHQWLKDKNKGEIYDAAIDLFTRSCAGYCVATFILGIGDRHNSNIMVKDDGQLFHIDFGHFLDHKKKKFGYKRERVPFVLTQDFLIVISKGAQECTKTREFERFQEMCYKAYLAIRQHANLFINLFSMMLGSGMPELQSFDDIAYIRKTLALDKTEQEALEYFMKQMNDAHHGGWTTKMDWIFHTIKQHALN
MAP/microtubule affinity-regulating kinase 3 (Homo sapiens), sequence (P27448 whole entry, looked up): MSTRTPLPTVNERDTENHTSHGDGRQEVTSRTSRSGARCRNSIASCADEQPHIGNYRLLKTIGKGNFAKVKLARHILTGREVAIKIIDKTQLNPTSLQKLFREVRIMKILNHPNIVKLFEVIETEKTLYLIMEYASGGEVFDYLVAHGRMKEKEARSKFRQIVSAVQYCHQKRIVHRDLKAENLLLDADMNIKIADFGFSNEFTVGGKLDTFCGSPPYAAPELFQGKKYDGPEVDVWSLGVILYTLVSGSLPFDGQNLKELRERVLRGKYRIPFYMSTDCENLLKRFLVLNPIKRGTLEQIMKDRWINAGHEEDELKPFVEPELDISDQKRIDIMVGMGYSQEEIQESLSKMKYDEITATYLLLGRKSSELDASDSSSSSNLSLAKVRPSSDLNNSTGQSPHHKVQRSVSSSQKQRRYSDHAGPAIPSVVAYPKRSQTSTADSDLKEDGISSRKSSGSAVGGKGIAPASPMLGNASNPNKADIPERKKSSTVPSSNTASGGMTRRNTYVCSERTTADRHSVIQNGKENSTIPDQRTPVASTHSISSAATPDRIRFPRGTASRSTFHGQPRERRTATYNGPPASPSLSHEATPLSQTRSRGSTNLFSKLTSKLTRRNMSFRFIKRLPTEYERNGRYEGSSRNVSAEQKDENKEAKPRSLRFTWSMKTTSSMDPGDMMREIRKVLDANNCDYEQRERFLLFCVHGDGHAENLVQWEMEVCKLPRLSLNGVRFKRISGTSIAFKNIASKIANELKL

For `Cn1cc(-n2cnc3c(NCc4nc5cc(Cl)c(Cl)cc5[nH]4)nc(N4CCOCC4)nc32)cn1`, the % of inhibition in [1] was -50.1%; in test [2], -33.9%; in [3], -30.5%.

As to `CCN(CC)CCCCNc1ncc2cc(-c3cc(OC)cc(OC)c3)c(NC(=O)NC(C)(C)C)nc2n1`, the % of control (in [4]; at Activated CDC42 kinase 1) was 100% each time.

Molecule `Cc1cc(F)c(C(=O)Nc2cccc(-c3nncn3C(C)C)n2)cc1-n1cnc(C2CC2)c1` had a % of control in test [5] of 89%.

`O=C(NOC[C@H](O)CO)c1ccc(F)c(F)c1Nc1ccc(I)cc1F`: the % of control in test [6] is 91%.

In test [7], `Cc1cc([C@@H](C)Nc2ccccc2C(=O)O)c2nc(N3CCOCC3)cc(=O)n2c1` [AZD-6482] had a % of control of 100%.

Consider `CC[C@@H]1[C@H](F)C(=O)N[C@@H]1COc1nccc2cc(C(N)=O)c(OC)cc12` [ZIMLOVISERTIB], for which the results for the % of inhibition in test [8] and in test [9] were -14.8% and 2.95%, respectively.

With `C=CC(=O)Nc1cccc(C(=O)Nc2ccc(Nc3cc(-c4[nH]c(SC)nc4C)ccn3)cc2)c1`, the values for the % of control in test [10] (at 1 µM) and in test [10] (at 5 µM) were 48% and 15%, respectively.

`COc1cc(Nc2nc(C)cc(-c3cnn4nc(OC)ccc34)n2)cc(C(F)(F)F)c1` showed a % of control in test [11] of 100%.

Turning to `O[C@H]1CC[C@H](Nc2ncc3nc(Nc4c(F)cc(F)cc4F)n([C@H]4CCOC4)c3n2)CC1`, the % of control in test [12], in test [13], in test [14], in [15], in [16] and in test [17] was 100% in each case. For the same molecule, the % of control in test [18], in [19] and in [20] was 100% in each case.

In turn, `CC(C)(O)[C@H](F)CN1Cc2cc(NC(=O)c3cnn4cccnc34)c(N3CCOCC3)cc2C1=O` displayed a dTM in [21] of 0.9 K.
